Assay results from patent US8927718B2, “Fused heterocyclic ring derivative and use thereof” (Takeda Pharmaceutical Company Limited, priority 2009, dated 2015).

Biological target: T1, Smo (Mus musculus, UniProt P56726)
T1 construct: endogenous in cells; host or cells: NIH-3T3 cells stably carrying the Gli luciferase reporter
Assay: Gli reporter luciferase assay in NIH-3T3/Gli reporter cells stimulated with mouse Shh-N end fragment
Type: cell-based
Settings: NIH3T3, 1 μM compound, mouse Shh-N end fragment supernatant, 48 hr, luciferase activity, control without compound as 100, read-out: inhibitory rate (%) at 1 μM
Experimental: Gli reporter plasmid was constructed by inserting 8× Gli-binding site and chicken δ-crystalline promoter into the upstream of luc+ of pGL3 (Promega).
HEK293 cells were grown in D-MEM medium (Invitrogen) containing 10% fetal bovine serum in a 10 cm dish and pcDNA3.1/mShh-N was introduced into the cells using FuGENE6 (Roche Applied Science). Thereafter, the HEK293 cells were cultured in a carbon dioxide gas incubator at 37° C. for 24 hours, and the medium was exchanged with D-MEM medium (Invitrogen) containing 2% fetal bovine serum. After culturing for 48 hr, a culture supernatant containing recombinant type mouse Shh-N end fragment was obtained by filtration using a filter ([…]).
Using D-MEM (Invitrogen) containing 10% fetal bovine serum, expression plasmid pcDNA3.1 and Gli reporter plasmid (pGL3/δ-cry promoter, 8× Gli binding site) produced by the method of Experimental Example 1 were introduced into NIH-3T3 cells grown in a 10 cm dish by the use of FuGENE6 (Roche Applied Science).
After culture for 24 hr, the cells were recovered, suspended in D-MEM medium containing 10% fetal bovine serum and supplemented with Geneticin (Life Technologies Oriental, Inc.) to a final concentration of 500 μg/ml, diluted to 10^4 cells/ml, plated on a 96 well plate, and cultured in a carbon dioxide gas incubator at 37° C. to give Geneticin resistant transformed cell line. […]
NIH-3T3/Gli reporter cells cultured in D-MEM (Invitrogen) containing 10% fetal bovine serum were plated in a 96 well white plate at 1×10^4 cells/well, and cultured overnight in a carbon dioxide gas incubator at 37° C. […] Bright-Glo (Promega, 50 μl) was added, and the mixture was stirred, after which luciferase activity was measured by EnVision (PerkinElmer). The inhibition rate was calculated based on the luciferase activity of the control without addition of the compound as 100.

T1 sequence (P56726 33-793): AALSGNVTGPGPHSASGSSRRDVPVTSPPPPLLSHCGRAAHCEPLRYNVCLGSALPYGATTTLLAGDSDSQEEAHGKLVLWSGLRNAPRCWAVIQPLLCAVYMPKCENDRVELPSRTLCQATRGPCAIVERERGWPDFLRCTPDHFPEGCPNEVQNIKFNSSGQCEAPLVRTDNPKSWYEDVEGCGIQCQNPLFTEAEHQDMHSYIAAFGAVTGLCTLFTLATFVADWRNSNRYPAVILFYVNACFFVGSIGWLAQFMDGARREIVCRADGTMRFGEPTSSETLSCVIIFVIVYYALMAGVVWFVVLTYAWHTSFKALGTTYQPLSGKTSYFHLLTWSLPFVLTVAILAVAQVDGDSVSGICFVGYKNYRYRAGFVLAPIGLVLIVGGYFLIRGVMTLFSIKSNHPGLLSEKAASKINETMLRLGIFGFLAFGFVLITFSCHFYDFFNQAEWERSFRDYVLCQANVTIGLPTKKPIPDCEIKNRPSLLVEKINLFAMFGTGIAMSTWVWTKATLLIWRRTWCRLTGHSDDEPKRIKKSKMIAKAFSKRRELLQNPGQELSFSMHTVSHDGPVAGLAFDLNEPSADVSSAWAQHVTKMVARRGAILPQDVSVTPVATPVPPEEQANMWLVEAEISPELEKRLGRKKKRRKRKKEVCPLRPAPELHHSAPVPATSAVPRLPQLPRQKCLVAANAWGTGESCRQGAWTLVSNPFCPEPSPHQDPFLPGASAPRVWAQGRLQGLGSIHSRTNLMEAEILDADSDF

inhibition at 1 µM [%]	Structure (SMILES)
100	CCc1c(C(=O)NC2CCN(C(=O)CO)CC2)n(C)c2cc(CC)n(CC(=O)c3ccccc3)c(=O)c12 [Example 1, 3,6-diethyl-N-[1-(hydroxyacetyl)piperidin-4-yl]-1-methyl-4-oxo-5-(2-oxo-2-phenylethyl)-4,5-dihydro-1H-pyrrolo[3,2-c]pyridine-2-carboxamide]
100	C=Cc1c(C(=O)NC2CCN(C(=O)CO)CC2)n(C)c2cc(CC)n(CC(=O)c3ccccc3)c(=O)c12 [Example 2, 3-ethenyl-6-ethyl-N-[1-(hydroxyacetyl)piperidin-4-yl]-1-methyl-4-oxo-5-(2-oxo-2-phenylethyl)-4,5-dihydro-1H-pyrrolo[3,2-c]pyridine-2-carboxamide]
98	CCNc1c(C(=O)NC2CCN(C(=O)CO)CC2)n(C)c2cc(CC)n(CC(=O)c3ccccc3)c(=O)c12 [Example 32, 6-ethyl-3-(ethylamino)-N-[1-(hydroxyacetyl)piperidin-4-yl]-1-methyl-4-oxo-5-(2-oxo-2-phenylethyl)-4,5-dihydro-1H-pyrrolo[3,2-c]pyridine-2-carboxamide]
